In one data set the target is CYP3A4 (Homo sapiens, UniProt P08684). Here is the method: Both the curcumin-FK506 and TZDM-SLF bifunctional compounds include a ligand to the pertidyl-prolyl isomerase FKBP. Therefore, FKBP12 was used in the assay as the PMP. A control was also performed with FK506 in the presence and absence of FKBP12.
The coding sequence of human FKBP12 was subcloned into a pGEX2t vector. Bacteria transformed with this vector produce a fusion protein between FKBP12 and glutathione S-transferase (GST). FKBP12 is purified by standard methods and the GST tag enzymatically removed. Pure FKBP was flash-frozen, and stored at −80° C. at 10-100 micromolar in HEPES or phosphate buffer pH 7.0.
The CYP3A4 compound and the green substrate VIVID® DBOMF (Invitrogen) were used in the assay with the recombinant human FKBP12 (rhFKBP12) and one of the bifunctional compounds. […] Increasing concentrations of the bifunctional compound, curcumin-FK506, were added to this system, either in the presence (open symbols) or absence (closed symbols) of rhFKBP12 at one micromolar.
However, it has never been tested in an in vitro screen. Therefore, rhFKBP12 and FK506 were added to the VIVID assay. The open symbols are FK506+FKBP and the filled symbols are FK506 alone.

The conditions of data set [1]: stated as known; cited from earlier work.
Another data set relates to COS-1 cells. As to the kind of experiment: Fluorescence microscopy of cellular distribution in cultured COS-1 cells. The data set is classed as cell-based. The following applies: FIG. 3. As for the experimental part: Cellular and tissue distribution of a bifunctional molecule consisting of a FKBP-binding group was also assessed. Such re-distribution is due to changes in the physicochemical characteristics of the new molecule and also is driven by specific, high-affinity interactions with FKBP. For example, the distribution of TZDM and TZDM-SLF were studied in cultured COS-1 cells (see FIG. 3). The intrinsic fluorescence of TZDM was used was a convenient handle for following drug distribution. […] Thus, sequestering FKBP-binding drugs both reduces accessibility to P450 enzymes and also alters the distribution of the bifunctional compounds.

The target in data set [2] is T1, cytochrome p450 3A4 (CYP3A4) (Homo sapiens, UniProt P08684).
T1 construct: purchased Invitrogen
As to the kind of experiment: Cytochrome P450 susceptibility assay using whole cells (FKBP-expressing CHO cells in the VIVID assay). The data set is classed as in vitro ADME. The following applies: FKBP-expressing Chinese hamster ovary cells (CHO) added, FIG. 4. As for the experimental part: In addition to using rhFKBP12 or other recombinant proteins, whole cells were also tested using the cytochrome P450 assay platform. […] Unconjugated curcumin (triangle) was used as a negative control.

T1 sequence (P08684 whole entry): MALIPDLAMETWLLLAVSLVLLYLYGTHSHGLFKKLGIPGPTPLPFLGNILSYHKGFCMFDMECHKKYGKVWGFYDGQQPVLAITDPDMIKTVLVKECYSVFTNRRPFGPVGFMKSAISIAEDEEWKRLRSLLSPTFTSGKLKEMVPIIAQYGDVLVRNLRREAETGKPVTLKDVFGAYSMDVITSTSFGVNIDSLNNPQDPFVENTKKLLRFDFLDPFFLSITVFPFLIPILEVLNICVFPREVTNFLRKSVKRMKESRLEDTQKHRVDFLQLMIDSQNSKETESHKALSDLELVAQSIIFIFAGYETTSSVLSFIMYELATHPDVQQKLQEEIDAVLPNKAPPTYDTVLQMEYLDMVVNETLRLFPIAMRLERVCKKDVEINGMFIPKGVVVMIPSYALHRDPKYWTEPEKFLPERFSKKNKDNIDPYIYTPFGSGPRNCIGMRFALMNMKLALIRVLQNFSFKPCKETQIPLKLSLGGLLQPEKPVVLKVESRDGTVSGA
Chain of CYP3A4 (P08684 whole entry, the tested form may be a part): as the sequence (P08684 whole entry) above

With `C=CC[C@@H]1/C=C(\C)C[C@H](C)C[C@H](OC)[C@H]2O[C@@](O)(C(=O)C(=O)N3CCCC[C@H]3C(=O)O[C@H](/C(C)=C/[C@@H]3CC[C@@H](O)[C@H](OC)C3)[C@H](C)[C@@H](O)CC1=O)[C@H](C)C[C@@H]2OC` [FK506], at CYP3A4 (human), the “protection from metabolism by CYP on binding the protein partner FKBP” value was “protected from P450 metabolism by the presence of the protein partner”. Moreover, the “protection from degradation in whole animals” value in data set [1] is on record as “known to be protected from degradation in whole animals”. As for `CN(C)c1ccc(-c2nc3ccc(I)cc3s2)cc1` [TZDM], the “cellular distribution by intrinsic fluorescence” value with COS-1 cells is “resides in membranes”. For `COc1cc(/C=C/C(=O)C(C(=O)/C=C/c2ccc(O)c(OC)c2)c2ccc(NC(=O)OCC[C@@H]3/C=C(\C)C[C@H](C)C[C@H](OC)[C@H]4O[C@@](O)(C(=O)C(=O)N5CCCC[C@H]5C(=O)OC(/C(C)=C/[C@@H]5CC[C@@H](O)[C@H](OC)C5)[C@H](C)C(O)CC3=O)[C@H](C)C[C@@H]4OC)cc2)ccc1O` (stereo partly drawn) [curcumin-FK506], the “fluorescence of the reaction in the presence of rhFKBP12 compared to the reaction lacking rhFKBP12” value at CYP3A4 is “higher”. The “protection from P450 metabolism by addition of FKBP-expressing cells” value in data set [2] was “protected by addition of the FKBP-expressing cells”. In the case of `COc1cc(/C=C/C(=O)CC(=O)/C=C/c2ccc(O)c(OC)c2)ccc1O` [curcumin], in data set [2], the “protection from P450 metabolism by addition of FKBP-expressing cells” value is “less protected”.

The values above are taken from US20070054348A1, “Methods of screening bifunctional molecules for modulated pharmacokinetic properties” (priority 2005, published 2007).
